Reference: article PMC3071891 (Journal of inorganic biochemistry, 2010)
Like-named read-outs stand apart in the source and are kept apart here.

Legend:
[1] = biological target: T1, Giardia lamblia fructose 1,6-bisphosphate aldolase (GlFBPA) (Giardia intestinalis, UniProt A8B2U2); conditions: read-out: GlFBPA inhibition constant (Ki); inert substrate analog; ref [25]; cited from earlier work
[2] = biological target: T1, Giardia lamblia fructose 1,6-bisphosphate aldolase (GlFBPA); experiment: GlFBPA inhibition constants, steady-state kinetics

T1 sequence (A8B2U2 whole entry): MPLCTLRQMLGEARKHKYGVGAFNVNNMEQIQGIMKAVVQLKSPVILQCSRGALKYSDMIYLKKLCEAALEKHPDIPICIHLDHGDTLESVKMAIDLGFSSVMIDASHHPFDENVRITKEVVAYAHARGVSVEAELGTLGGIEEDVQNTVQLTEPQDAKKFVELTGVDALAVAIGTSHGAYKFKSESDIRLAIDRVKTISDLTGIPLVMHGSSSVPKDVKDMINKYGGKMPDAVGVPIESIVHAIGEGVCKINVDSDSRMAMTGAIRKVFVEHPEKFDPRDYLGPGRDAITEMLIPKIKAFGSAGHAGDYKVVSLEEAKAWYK

| SMILES | Ki [1] [µM] | Ki [2] [µM] |
| --- | --- | --- |
| O=C(COP(=O)(O)O)[C@@H](O)[C@@H](O)[C@H](O)COP(=O)(O)O [TBP, tagatose 1,6-bisphosphate] | 1 | – |
| O=c1c(O)cccn1CP(=O)(O)O [Compound 1, N-phosphonomethyl-3-hydroxy-2-pyridone] | – | 1200 ± 200 |
